Test results published in patent US8889705B2, “Noscapine analogs and their use in treating cancers” (Emory University, priority 2007, dated 2014).

Columns and labels:
[1] = test system: CEM/VLB100 cells; assay: Cell cycle analysis (propidium iodide, flow cytometry); format: cell-based, human; settings: CEM/VLB100, 25 μM
Method: (§1) The flow cytometric evaluation of the cell cycle status was performed as described previously (Zhou et al., 2003). Briefly, 2×10^6 cells were centrifuged, washed twice with ice-cold PBS, and fixed in 70% ethanol. Tubes containing the cell pellets were stored at 4° C. for at least 24 hours. Cells were then centrifuged at 1000×g for 10 min and the supernatant was discarded. The pellets were washed twice with 5 ml of PBS and then stained with 0.5 ml of propidium iodide (0.1% in 0.6% Triton-X in PBS) and 0.5 ml of RNase A (2 mg/ml) for 45 minutes in dark. Samples were then analyzed on a FACSCalibur flow cytometer (Beckman Coulter Inc., Fullerton, Calif.).

[2] = test system: CEM/VM-1-5 cells; assay: as above; format: cell-based, human; settings: CEM/VM-1-5, 25 μM
Method: as §1

[3] = test system: CEM cells; assay: as above; format: cell-based, human; settings: 25 μM
Method: as §1

[4] = test system: 1A9 cells; assay: as above; format: cell-based, human; settings: 1A9, 50 μM
Method: as §1

[5] = test system: CEM, CEM/VLB100, CEM/VM-1-5, 1A9 and 1A9/PTX22 cells; assay: Immunofluorescence microscopy (microtubule and nuclear morphology); format: cell-based, human; settings: 72 hours
Method: Cells adhered to poly-L-lysine coated coverslips were treated with 9-nitro-nos for 72 hours. After treatment, cells were fixed with cold (−20° C.) methanol for 5 min and then washed with phosphate-buffered saline (PBS) for 5 min. Non-specific sites were blocked by incubating with 100 μl of 2% BSA in PBS at 37° C. for 15 min. A mouse monoclonal antibody against α-tubulin (DM1A, Sigma) was diluted 1:500 in 2% BSA/PBS (100 μl) and incubated with the coverslips for 2 hours at 37° C. Cells were then washed with 2% BSA/PBS for 10 min at room temperature before incubating with a 1:200 dilution of a fluorescein-isothiocyanate (FITC)-labeled goat anti-mouse IgG antibody (Jackson ImmunoResearch, Inc., West Grove, Pa.) at 37° C. for 1 hour. Coverslips were then rinsed with 2% BSA/PBS for 10 min and incubated with propidium iodide (0.5 μg/ml) for 15 min at room temperature before they were mounted with Aquamount (Lerner Laboratories, Pittsburgh, Pa.) containing 0.01% 1,4-diazobicyclo(2,2,2)octane (DABCO, Sigma). Cells were then examined using confocal microscopy for microtubule morphology, and nuclear morphology to visualize DNA fragmentation (at least 100 cells were examined per condition).

[6] = test system: caspase-3 activity in CEM, CEM/VLB100, CEM/VM-1-5, 1A9 and 1A9/PTX22 cells; assay: Determination of caspase-3 activity (Z-DEVD-aminoluciferin); format: cell-based, human; settings: 72 hours; 25 μM (CEM lines) or 50 μM (1A9 lines)
Method: Determination of caspase-3 activity: 10^6 cells were incubated with 25 μM 9-nitro-nos (CEM, CEMNLB100 and CEM/VM-1-5) or 50 μM 9-nitro-nos (1A9 and 1A9/PTX22) for 0, 24, 48 and 72 hours. Caspase-3 activity was then measured by the cleavage of the small synthetic substrate Z-DEVD-aminoluciferin (CaspaseGlo™ 3/7 Assay System Kit, Promega, Madison, Wis.) that becomes luminogenic upon cleavage. The luminescent signal, which is directly proportional to the amount of caspase-3 activity, was measured in a luminescence plate reader.

[7] = test system: 1A9/PTX22 cells; assay: Sulforhodamine B cell proliferation assay; format: cell-based; settings: Homo sapiens, 1A9/ptx-22; 1A9/PTX22, 72 hours, SRB
Method: (§2) Sulforhodamine B assay: The cell proliferation assay was performed in 96-well plates as described previously (Skehan et al., 1990; Zhou et al., 2003). Adherent cells (1A9 and 1A9/PTX22) were seeded in 96-well plates at a density of 5×10^3 cells per well. They were treated with increasing gradient concentrations of 9-nitro-nos the next day while in log-phase growth. After 72 hours of drug treatment, cells were fixed with 50% trichloroacetic acid and stained with 0.4% sulforhodamine B dissolved in 1% acetic acid. Cells were then washed with 1% acetic acid to remove unbound dye. The protein-bound dye was extracted with 10 mM Tris base to determine the optical density at 564-nm wavelength.

[8] = test system: 1A9 cells; assay: Sulforhodamine B cell proliferation assay; format: cell-based; settings: Homo sapiens; 1A9, 72 hours, SRB
Method: as §2

SMILES: COc1ccc2c(c1OC)C(=O)O[C@@H]2[C@H]1c2c(c([N+](=O)[O-])c3c(c2OC)OCO3)CCN1C [9-nitro-nos, (S)-6,7-dimethoxy-3-((R)-4-methoxy-6-methyl-9-nitro-5,6,7,8-tetrahydro-[1,3]dioxolo[4,5-g]isoquinolin-5-yl)isobenzofuran-1(3H)-one]
- G0/G1 ([1]; 0 h): 46.9%
- G2/M ([1]; 0 h): 25.7%
- S ([1]; 0 h): 17.6%
- Sub-G1 ([1]; 0 h): 3.6%
- G0/G1 ([1]; 24 h): 25.5%
- G2/M ([1]; 24 h): 36.0%
- S ([1]; 24 h): 17.7%
- Sub-G1 ([1]; 24 h): 14.8%
- G0/G1 ([1]; 48 h): 23.7%
- G2/M ([1]; 48 h): 30.2%
- S ([1]; 48 h): 9.3%
- Sub-G1 ([1]; 48 h): 30.7%
- G0/G1 ([1]; 72 h): 8.7%
- G2/M ([1]; 72 h): 12.5%
- S ([1]; 72 h): 4.5%
- Sub-G1 ([1]; 72 h): 56.1%
- G0/G1 ([2]; 0 h): 36.0%
- G2/M ([2]; 0 h): 30.7%
- S ([2]; 0 h): 19.4%
- Sub-G1 ([2]; 0 h): 3.4%
- G0/G1 ([2]; 24 h): 25.4%
- G2/M ([2]; 24 h): 41.0%
- S ([2]; 24 h): 13.0%
- Sub-G1 ([2]; 24 h): 18.8%
- G0/G1 ([2]; 48 h): 13.7%
- G2/M ([2]; 48 h): 15.0%
- S ([2]; 48 h): 11.0%
- Sub-G1 ([2]; 48 h): 58.0%
- G0/G1 ([2]; 72 h): 10.5%
- G2/M ([2]; 72 h): 12.2%
- S ([2]; 72 h): 8.7%
- Sub-G1 ([2]; 72 h): 63.0%
- G0/G1 ([3]; 0 h): 45.5%
- G2/M ([3]; 0 h): 20.9%
- S ([3]; 0 h): 25.0%
- Sub-G1 ([3]; 0 h): 0.25%
- G0/G1 ([3]; 24 h): 24.8%
- G2/M ([3]; 24 h): 34.2%
- S ([3]; 24 h): 10.0%
- Sub-G1 ([3]; 24 h): 6.5%
- G0/G1 ([3]; 48 h): 19.7%
- G2/M ([3]; 48 h): 40.0%
- S ([3]; 48 h): 8.1%
- Sub-G1 ([3]; 48 h): 23.8%
- G0/G1 ([3]; 72 h): 13.9%
- G2/M ([3]; 72 h): 16.9%
- S ([3]; 72 h): 8.9%
- Sub-G1 ([3]; 72 h): 44.3%
- G0/G1 ([4]; 0 h): 50.0%
- G2/M ([4]; 0 h): 21.2%
- S ([4]; 0 h): 21.8%
- Sub-G1 ([4]; 0 h): 0.7%
- G0/G1 ([4]; 24 h): 30.6%
- G2/M ([4]; 24 h): 34.2%
- S ([4]; 24 h): 14.3%
- Sub-G1 ([4]; 24 h): 12.0%
- G0/G1 ([4]; 48 h): 28.6%
- G2/M ([4]; 48 h): 17.2%
- S ([4]; 48 h): 10.6%
- Sub-G1 ([4]; 48 h): 38.0%
- G0/G1 ([4]; 72 h): 16.7%
- G2/M ([4]; 72 h): 9.0%
- S ([4]; 72 h): 9.6%
- Sub-G1 ([4]; 72 h): 56.3%
- cellular and nuclear morphology (apoptosis) [5]: extensive terminal apoptotic figures with fragmented DNA pieces and perturbed microtubule arrays
- activation of caspase-3 [6]: 10-20 fold
- IC50 [7]: 27.5 µM
- IC50 [8]: 30.1 µM
